pIC50: −log10 of the molar value. Where a name gives a salt, the structure may show the parent alone.
biological target: KDR (Homo sapiens, UniProt P35968); assay: KDR inhibition of metabolites; assay type: biochemical; details: metabolites of Compound A
Sequence (P35968 20-1356, species assumed): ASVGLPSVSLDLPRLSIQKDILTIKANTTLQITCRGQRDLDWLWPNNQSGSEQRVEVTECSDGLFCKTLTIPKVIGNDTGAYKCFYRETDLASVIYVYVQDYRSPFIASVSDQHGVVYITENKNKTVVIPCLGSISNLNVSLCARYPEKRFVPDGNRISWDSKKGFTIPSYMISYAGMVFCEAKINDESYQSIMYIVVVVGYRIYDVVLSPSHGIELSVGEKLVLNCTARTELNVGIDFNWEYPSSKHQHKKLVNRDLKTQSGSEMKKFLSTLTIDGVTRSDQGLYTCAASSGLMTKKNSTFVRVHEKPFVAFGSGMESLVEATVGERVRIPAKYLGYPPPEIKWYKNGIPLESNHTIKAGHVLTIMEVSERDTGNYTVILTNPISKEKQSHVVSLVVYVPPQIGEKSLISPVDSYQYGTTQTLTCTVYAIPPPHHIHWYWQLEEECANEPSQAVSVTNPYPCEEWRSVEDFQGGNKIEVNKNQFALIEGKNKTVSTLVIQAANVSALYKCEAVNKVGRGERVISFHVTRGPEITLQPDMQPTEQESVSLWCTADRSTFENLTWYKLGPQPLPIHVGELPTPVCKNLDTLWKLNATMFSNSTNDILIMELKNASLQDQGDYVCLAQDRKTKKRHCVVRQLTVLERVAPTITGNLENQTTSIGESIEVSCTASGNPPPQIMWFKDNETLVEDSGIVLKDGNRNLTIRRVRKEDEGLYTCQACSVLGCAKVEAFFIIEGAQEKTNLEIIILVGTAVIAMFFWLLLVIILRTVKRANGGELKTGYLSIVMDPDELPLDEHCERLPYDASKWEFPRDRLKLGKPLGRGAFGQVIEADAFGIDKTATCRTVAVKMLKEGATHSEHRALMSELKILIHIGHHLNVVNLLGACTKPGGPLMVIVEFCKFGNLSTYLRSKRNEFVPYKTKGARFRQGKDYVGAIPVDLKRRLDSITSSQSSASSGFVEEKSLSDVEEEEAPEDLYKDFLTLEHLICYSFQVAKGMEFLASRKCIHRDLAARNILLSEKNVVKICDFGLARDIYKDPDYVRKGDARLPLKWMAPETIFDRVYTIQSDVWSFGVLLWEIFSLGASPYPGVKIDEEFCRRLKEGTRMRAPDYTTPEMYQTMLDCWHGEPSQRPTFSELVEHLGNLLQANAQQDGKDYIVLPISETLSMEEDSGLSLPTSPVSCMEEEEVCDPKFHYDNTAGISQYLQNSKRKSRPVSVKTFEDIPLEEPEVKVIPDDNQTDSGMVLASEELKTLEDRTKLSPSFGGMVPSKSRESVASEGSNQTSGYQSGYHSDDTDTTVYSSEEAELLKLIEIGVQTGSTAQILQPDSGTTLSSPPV

pIC50 | SMILES
8.98 | COc1cc2nccc(Oc3ccc4c(c3)OCCN4C(=O)Nc3cc(CO)on3)c2cc1OC [7-(6,7-dimethoxyquinolin-4-yloxy)-N-(5-(hydroxymethyl)isoxazol-3-yl)-2,3-dihydrobenzo[b][1,4]oxazine-4-carboxamide hydrochloride]
8.77 | COc1cc2nccc(Oc3ccc4c(c3)OCCN4C(=O)Nc3cc(C)on3)c2cc1O [7-(6-hydroxy-7-methoxyquinolin-4-yloxy)-N-(5-methylisoxazol-3-yl)-2,3-dihydrobenzo[b][1,4]oxazine-4-carboxamide]
6.11 | COc1cc2c(Oc3ccc4c(c3)OCCN4C(=O)Nc3cc(C)on3)ccnc2cc1O [7-(7-hydroxy-6-methoxyquinolin-4-yloxy)-N-(5-methylisoxazol-3-yl)-2,3-dihydrobenzo[b][1,4]oxazine-4-carboxamide]
5.30 | COc1cc2c(Oc3ccc4c(c3)OCCN4C(=O)Nc3cc(C)on3)cc[n+]([O-])c2cc1OC [Compound A N-oxide]
